# Results from US9175003B2, “Substituted azoanthracene derivatives and intermediates for preparation thereof” (TransTech Pharma, LLC, priority 2009, dated 2015).
# Target: human GLP-1 receptor (Homo sapiens (Human), UniProt P43220)
# Conditions: read-out: Mean EC50; cAMP, HTRF detection, 30 min at 37° C., HEK-293 cells expressing cloned human GLP-1 receptor
# Experimental: Following overnight incubation of cells, media was removed, and compounds (at concentrations ranging from 0.0001 to 100 μM) were added to monolayer cells in Iscove's modified dulbecco's medium (IMDM), 100 μM RO 20-1724 PDE inhibitor, 0.1% BSA, 2% DMSO in a final volume of 100 μL, and incubated for 30 min at 37° C. […] Alternatively, cells were harvested and combined with compounds in suspension using the buffer and protocol described above. cAMP was quantified using a homogenous time-resolved fluorescence detection system (cAMP dynamic, CIS bio International).
# Sequence of human GLP-1 receptor (P43220 24-463): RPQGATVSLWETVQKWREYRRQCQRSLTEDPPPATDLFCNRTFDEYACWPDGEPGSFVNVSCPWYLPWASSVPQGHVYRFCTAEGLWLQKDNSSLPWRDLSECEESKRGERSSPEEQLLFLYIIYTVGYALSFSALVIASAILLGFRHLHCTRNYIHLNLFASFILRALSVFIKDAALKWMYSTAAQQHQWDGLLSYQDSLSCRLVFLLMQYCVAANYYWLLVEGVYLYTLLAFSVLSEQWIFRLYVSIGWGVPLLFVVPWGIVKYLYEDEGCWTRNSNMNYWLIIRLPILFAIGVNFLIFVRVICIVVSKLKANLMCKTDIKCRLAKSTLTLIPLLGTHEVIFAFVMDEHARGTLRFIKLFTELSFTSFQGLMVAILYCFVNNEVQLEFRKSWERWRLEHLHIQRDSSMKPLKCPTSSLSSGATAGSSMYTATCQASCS
row,EC50,Structure (SMILES)
1,284 nM,"CCNc1ccc(S(=O)(=O)N2Cc3cc4c(cc3C[C@H]2C(=O)N[C@@H](Cc2ccc(-c3ccc(C#N)cc3)cc2)C(=O)O)OCC(c2ccc(OCc3ccc(Cl)c(Cl)c3)cc2)O4)c(C)n1 (stereo in doubt) [Example 135, (S)-3-(4′-Cyano-biphenyl-4-yl)-2-{[(S)-3-[4-(3,4-dichloro-benzyloxy)-phenyl]-7-(6-ethylamino-2-methyl-pyridine-3-sulfonyl)-2,3,6,7,8,9-hexahydro-[1,4]dioxino[2,3-g]isoquinoline-8-carbonyl]-amino}-propionic acid]"
2,50 nM,"COCCNc1ccc(S(=O)(=O)N2Cc3cc4c(cc3C[C@H]2C(=O)N[C@@H](Cc2ccc(-c3ccc(C#N)cc3)cc2)C(=O)O)OCC(c2ccc(OCc3ccc(Cl)c(Cl)c3)cc2)O4)c(C)n1 (stereo in doubt) [Example 136, (S)-3-(4′-Cyano-biphenyl-4-yl)-2-({(S)-3-[4-(3,4-dichloro-benzyloxy)-phenyl]-7-[6-(2-methoxy-ethylamino)-2-methyl-pyridine-3-sulfonyl]-2,3,6,7,8,9-hexahydro-[1,4]dioxino[2,3-g]isoquinoline-8-carbonyl}-amino)-propionic acid]"
3,241 nM,"CC(=O)Nc1nc(-c2ccc(S(=O)(=O)N3Cc4cc5c(cc4C[C@H]3C(=O)N[C@@H](Cc3ccc(-c4ccc(C#N)cc4)cc3)C(=O)O)OCC(c3ccc(OCc4ccc(Cl)c(Cl)c4)cc3)O5)cc2)cs1 (stereo in doubt) [Example 138, (S)-2-({(S)-7-[4-(2-Acetylamino-thiazol-4-yl)-benzenesulfonyl]-3-[4-(3,4-dichloro-benzyloxy)-phenyl]-2,3,6,7,8,9-hexahydro-[1,4]dioxino[2,3-g]isoquinoline-8-carbonyl}-amino)-3-(4′-cyano-biphenyl-4-yl)-propionic acid]"
4,85 nM,"N#Cc1ccc(-c2ccc(C[C@H](NC(=O)[C@@H]3Cc4cc5c(cc4CN3S(=O)(=O)c3ccc(-c4csc(N)n4)cc3)OC(c3ccc(OCc4ccc(Cl)c(Cl)c4)cc3)CO5)C(=O)O)cc2)cc1 (stereo in doubt) [Example 139, (S)-2-({(S)-7-[4-(2-Amino-thiazol-4-yl)-benzenesulfonyl]-3-[4-(3,4-dichloro-benzyloxy)-phenyl]-2,3,6,7,8,9-hexahydro-[1,4]dioxino[2,3-g]isoquinoline-8-carbonyl}-amino)-3-(4′-cyano-biphenyl-4-yl)-propionic acid]"

# More lines, now with the values behind:
row,Structure (SMILES),EC50
1,"Cc1nc(C)c(S(=O)(=O)N2Cc3cc4c(cc3C[C@H]2C(=O)N[C@@H](Cc2ccc(-c3ccc(C#N)cc3)cc2)C(=O)O)OCC(c2ccc(OCc3ccc(Cl)c(Cl)c3)cc2)O4)s1 (stereo in doubt) [Example 130, (S)-3-(4′-Cyano-biphenyl-4-yl)-2-{[(S)-3-[4-(3,4-dichloro-benzyloxy)-phenyl]-7-(2,4-dimethyl-thiazole-5-sulfonyl)-2,3,6,7,8,9-hexahydro-[1,4]dioxino[2,3-g]isoquinoline-8-carbonyl]-amino}-propionic acid]",111 nM
2,"Cc1nc(N2CCOCC2)ccc1S(=O)(=O)N1Cc2cc3c(cc2C[C@H]1C(=O)N[C@@H](Cc1ccc(-c2ccc(C#N)cc2)cc1)C(=O)O)OCC(c1ccc(OCc2ccc(Cl)c(Cl)c2)cc1)O3 (stereo in doubt) [Example 133, (S)-3-(4′-Cyano-biphenyl-4-yl)-2-{[(S)-3-[4-(3,4-dichloro-benzyloxy)-phenyl]-7-(2-methyl-6-morpholin-4-yl-pyridine-3-sulfonyl)-2,3,6,7,8,9-hexahydro-[1,4]dioxino[2,3-g]isoquinoline-8-carbonyl]-amino}-propionic acid]",54 nM
3,"Cc1nc(N)sc1S(=O)(=O)N1Cc2cc3c(cc2C[C@H]1C(=O)N[C@@H](Cc1ccc(-c2ccc(C#N)cc2)cc1)C(=O)O)OC[C@@H](c1ccc(OCc2ccc(Cl)c(Cl)c2)cc1)O3 [Example 60, (S)-2-({(3R,8S)-7-(2-Amino-4-methyl-thiazole-5-sulfonyl)-3-[4-(3,4-dichloro-benzyloxy)-phenyl]-2,3,6,7,8,9-hexahydro-[1,4]dioxino[2,3-g]isoquinoline-8-carbonyl}-amino)-3-(4′-cyano-biphenyl-4-yl)-propionic acid]",109 nM
4,"CNc1nc(C)c(S(=O)(=O)N2Cc3cc4c(cc3C[C@H]2C(=O)N[C@@H](Cc2ccc(-c3ccc(C#N)cc3)cc2)C(=O)O)OC[C@@H](c2ccc(OCc3ccc(Cl)c(Cl)c3)cc2)O4)s1 [Example 61, (S)-3-(4′-Cyano-biphenyl-4-yl)-2-{[(3R,8S)-3-[4-(3,4-dichloro-benzyloxy)-phenyl]-7-(4-methyl-2-methylamino-thiazole-5-sulfonyl)-2,3,6,7,8,9-hexahydro-[1,4]dioxino[2,3-g]isoquinoline-8-carbonyl]-amino}-propionic acid]",73 nM
5,"CCNc1nc(C)c(S(=O)(=O)N2Cc3cc4c(cc3C[C@H]2C(=O)N[C@@H](Cc2ccc(-c3ccc(C#N)cc3)cc2)C(=O)O)OC[C@@H](c2ccc(OCc3ccc(Cl)c(Cl)c3)cc2)O4)s1 [Example 62, (S)-3-(4′-Cyano-biphenyl-4-yl)-2-{[(3R,8S)-3-[4-(3,4-dichloro-benzyloxy)-phenyl]-7-(2-ethylamino-4-methyl-thiazole-5-sulfonyl)-2,3,6,7,8,9-hexahydro-[1,4]dioxino[2,3-g]isoquinoline-8-carbonyl]-amino}-propionic acid]",328 nM
6,Cc1nc(NC(=O)[C@@H]2CCCN2)sc1S(=O)(=O)N1Cc2cc3c(cc2C[C@H]1C(=O)N[C@@H](Cc1ccc(-c2ccc(C#N)cc2)cc1)C(=O)O)OCC(c1ccc(OCc2ccc(Cl)c(Cl)c2)cc1)O3 (stereo partly shown) [Example 71],477 nM
7,"CC[C@@H](c1ccccc1)N1Cc2cc3c(cc2C[C@H]1C(=O)N[C@@H](Cc1ccc(-c2ccc(C#N)cc2)cc1)C(=O)O)OC[C@H](c1ccc(OCc2ccc(Cl)c(Cl)c2)cc1)O3 [Example 72, (S)-3-(4′-Cyano-biphenyl-4-yl)-2-{[(3S,8S)-3-[4-(3,4-dichloro-benzyloxy)-phenyl]-7-((S)-1-phenyl-propyl)-2,3,6,7,8,9-hexahydro-[1,4]dioxino[2,3-g]isoquinoline-8-carbonyl]-amino}-propionic acid]",480 nM
8,"CC[C@@H](c1ccccc1)N1Cc2cc3c(cc2C[C@H]1C(=O)N[C@@H](Cc1ccc(-c2ccncc2)cc1)C(=O)O)OC[C@H](c1ccc(OCc2ccc(Cl)c(Cl)c2)cc1)O3 [Example 73, (S)-2-{[(3S,8S)-3-[4-(3,4-Dichloro-benzyloxy)-phenyl]-7-((S)-1-phenyl-propyl)-2,3,6,7,8,9-hexahydro-[1,4]dioxino[2,3-g]isoquinoline-8-carbonyl]-amino}-3-(4-pyridin-4-yl-phenyl)-propionic acid]",76 nM
9,"Cc1nc(N)sc1S(=O)(=O)N1Cc2cc3c(cc2C[C@H]1C(=O)N[C@@H](Cc1ccc(-c2ccc(C#N)cc2)cc1)C(=O)O)OC[C@H](c1ccc(OCc2ccc(Cl)c(Cl)c2)cc1)O3 [Example 81, (S)-2-({(3S,8S)-7-(2-Amino-4-methyl-thiazole-5-sulfonyl)-3-[4-(3,4-dichloro-benzyloxy)-phenyl]-2,3,6,7,8,9-hexahydro-[1,4]dioxino[2,3-g]isoquinoline-8-carbonyl}-amino)-3-(4′-cyano-biphenyl-4-yl)-propionic acid]",326 nM
